ChEMBL document CHEMBL1201862, “PubChem BioAssay data set” (2004)
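Briefly, cells in 96-well plates were exposed to five compound concentrations for 48 h, and endpoints were estimated by linear interpolation. Here, GI50 denotes the concentration required for 50% inhibition of growth.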 Calls of active or inactive are those of the source. Cut-off read from the data, not from the text of the source: active = GI50 up to about 1.1 µM and inactive = higher. Starred links: 1 amine or outer side, 2 acyl side, 3 side chain; linkers in the order of their positions; H or OH if unused. Positions of bridges follow the written chain, without caps; N, C: chain ends. Non-standard residues stand in square brackets, D forms with d. Residues, ends and D or L forms follow the SMILES beside them. ξ: configuration not given here. *: point of attachment. γ4hArg(2R,3R-(OH)2) = N=C(N)NCCC[C@H](N[*:1])[C@@H](O)[C@@H](O)C(=O)[*:2]; Gln(3S,4R-Me2) = C[C@H]([C@H](N)C(=O)O)[C@@H](C)C(N)=O; X50 = CC(C)C[C@H](C)[C@@H](O)[C@@H](C)C(=O)*; X51 = COC(c1ccc(O)cc1)C(N[*:1])C(=O)[*:2]; NMeQ = CN[C@@H](CCC(N)=O)C(=O)O; Thr(3ξ) = CC(O)[C@H](N)C(=O)O; NMeA = CN[C@@H](C)C(=O)O

How the values were obtained:
Assay in all cases: DTP human tumour cell line panel, 48 h
[1] = system: A549
[2] = system: MOLT-4
[3] = system: SK-OV-3
[4] = system: U-251
[5] = system: MDA-N
[6] = system: OVCAR-8
[7] = system: LOX IMVI
[8] = system: SF-295
[9] = system: A498
[10] = system: SF-539
[11] = system: SN12C
[12] = system: M14
[13] = system: Hs-578T
[14] = system: UO-31
[15] = system: RXF 393
[16] = system: HL-60
[17] = system: RPMI-8226
[18] = system: KM12
[19] = system: NCI-H460
[20] = system: CCRF-CEM

SMILES	GI50 [1]	GI50 [2]	GI50 [3]	GI50 [4]	GI50 [5]	GI50 [6]	GI50 [7]	GI50 [8]	GI50 [9]	GI50 [10]	GI50 [11]	GI50 [12]	GI50 [13]	GI50 [14]	GI50 [15]	GI50 [16]	GI50 [17]	GI50 [18]	GI50 [19]	GI50 [20]
CC1SCc2nc3ccccc3n21 (stereo not given)	> 100 µM (inactive)	> 100 µM (inactive)	> 100 µM (inactive)	> 100 µM (inactive)	> 100 µM (inactive)	> 100 µM (inactive)	> 100 µM (inactive)	> 100 µM (inactive)	> 100 µM (inactive)	> 100 µM (inactive)	> 100 µM (inactive)	> 100 µM (inactive)	> 100 µM (inactive)	> 100 µM (inactive)	> 100 µM (inactive)	> 100 µM (inactive)	> 100 µM (inactive)	> 100 µM (inactive)	> 100 µM (inactive)	> 100 µM (inactive)
O=C(/C(=N\Nc1ccc([N+](=O)[O-])cc1[N+](=O)[O-])NC12CC3CC(CC(C3)C1)C2)C(Br)C(=O)c1ccccc1 (stereo not given)	3.33 µM (inactive)	3.52 µM (inactive)	2.75 µM (inactive)	2.85 µM (inactive)	4.69 µM (inactive)	3.48 µM (inactive)	2.43 µM (inactive)	3.99 µM (inactive)	2.71 µM (inactive)	3.31 µM (inactive)	3.12 µM (inactive)	2.86 µM (inactive)	4.67 µM (inactive)	6.12 µM (inactive)	2.78 µM (inactive)	2.94 µM (inactive)	1.84 µM (inactive)	2.78 µM (inactive)	3.61 µM (inactive)	2.67 µM (inactive)
CC1(CCc2ccccc2)CC1(Br)Br (stereo not given)	32.9 µM (inactive)	23.4 µM (inactive)	> 100 µM (inactive)	31.4 µM (inactive)	32.7 µM (inactive)	23.6 µM (inactive)	20.5 µM (inactive)	25.4 µM (inactive)	39.6 µM (inactive)	> 100 µM (inactive)	18 µM (inactive)	44.8 µM (inactive)	42.9 µM (inactive)	39.4 µM (inactive)	20.7 µM (inactive)	21.5 µM (inactive)	18.6 µM (inactive)	35.7 µM (inactive)	34.1 µM (inactive)	23.6 µM (inactive)
COc1ccc(/C(CC2OC(=O)c3ccccc32)=N\NC(N)=O)cc1 (stereo not given)	> 100 µM (inactive)	> 100 µM (inactive)	> 100 µM (inactive)	> 100 µM (inactive)	> 100 µM (inactive)	> 100 µM (inactive)	> 100 µM (inactive)	> 100 µM (inactive)	> 100 µM (inactive)	> 100 µM (inactive)	> 100 µM (inactive)	> 100 µM (inactive)	> 100 µM (inactive)	> 100 µM (inactive)	> 100 µM (inactive)	> 100 µM (inactive)	> 100 µM (inactive)	> 100 µM (inactive)	> 100 µM (inactive)	> 100 µM (inactive)
COc1cc(C2c3cc4c(cc3OC(Nc3ccc(C(=O)O)cc3)C2C)OCO4)cc(OC)c1OC (stereo not given)	0.373 µM (active)	0.434 µM (active)	0.362 µM (active)	0.346 µM (active)	0.0557 µM (active)	0.422 µM (active)	0.532 µM (active)	0.214 µM (active)	0.714 µM (active)	0.218 µM (active)	0.991 µM (active)	0.301 µM (active)	1.39 µM (inactive)	0.426 µM (active)	0.115 µM (active)	0.186 µM (active)	0.337 µM (active)	0.241 µM (active)	0.326 µM (active)	0.282 µM (active)
COC(c1ccc(O)cc1)C1NC(=O)[C@H](CCC(N)=O)N(C)C(=O)[C@H](CC(C)C)NC(=O)[C@@H](CCCN=C(N)N)NC(=O)[C@H](C(C)O)NC(=O)[C@@H](NC(=O)[C@@H](NC(=O)[C@H](O)[C@H](O)[C@H](CCCN=C(N)N)NC(=O)[C@H](C)NC(=O)[C@H](C)[C@H](O)[C@@H](C)CC(C)C)[C@@H](C)[C@@H](C)C(N)=O)[C@@H](C)OC(=O)[C@H](C)N(C)C1=O (stereo partly drawn) (X50-A[γ4hArg(2R,3R-(OH)2)][Gln(3S,4R-Me2)]T[Thr(3ξ)][dR]L[NMeQ][X51][NMeA]; ester 4-C)	0.141 µM (active)	0.139 µM (active)	0.189 µM (active)	0.121 µM (active)	0.135 µM (active)	0.0889 µM (active)	0.482 µM (active)	0.0925 µM (active)	0.641 µM (active)	0.0859 µM (active)	0.149 µM (active)	0.115 µM (active)	0.0405 µM (active)	0.249 µM (active)	0.267 µM (active)	0.167 µM (active)	0.106 µM (active)	0.121 µM (active)	0.0604 µM (active)	0.151 µM (active)
NS(=O)(=O)c1ccc(NC(=S)NC(=O)Nc2ccc(Cl)c(Cl)c2)cc1	14.4 µM (inactive)	7.6 µM (inactive)	18.5 µM (inactive)	14.9 µM (inactive)	14.6 µM (inactive)	18.4 µM (inactive)	6.17 µM (inactive)	13.4 µM (inactive)	1.07 µM (active)	18.2 µM (inactive)	15.8 µM (inactive)	7.33 µM (inactive)	25.1 µM (inactive)	4.56 µM (inactive)	15.3 µM (inactive)	10.5 µM (inactive)	19.6 µM (inactive)	9.29 µM (inactive)	13 µM (inactive)	16.5 µM (inactive)
OC1CSc2nc3ccccc3n2C1 (stereo not given)	> 100 µM (inactive)	> 100 µM (inactive)	> 100 µM (inactive)	> 100 µM (inactive)	> 100 µM (inactive)	> 100 µM (inactive)	> 100 µM (inactive)	> 100 µM (inactive)	> 100 µM (inactive)	> 100 µM (inactive)	> 100 µM (inactive)	> 100 µM (inactive)	23.8 µM (inactive)	> 100 µM (inactive)	> 100 µM (inactive)	> 100 µM (inactive)	> 100 µM (inactive)	> 100 µM (inactive)	> 100 µM (inactive)	> 100 µM (inactive)
O=c1c2ccccc2sc2c(CO)ccc(NCCN3CCCCC3)c12	3.46 µM (inactive)	1.04 µM (active)	3.91 µM (inactive)	3.79 µM (inactive)	3.08 µM (inactive)	3.56 µM (inactive)	2.86 µM (inactive)	3.61 µM (inactive)	3.15 µM (inactive)	5 µM (inactive)	3.27 µM (inactive)	1.93 µM (inactive)	4.38 µM (inactive)	1.88 µM (inactive)	2.39 µM (inactive)	3.08 µM (inactive)	1.91 µM (inactive)	3.55 µM (inactive)	2.68 µM (inactive)	1.15 µM (inactive)
CCCCCCCCCCCCCCCC(=O)OC1C(O)C(O)C(O)C(O)C12CO2 (stereo not given)	> 100 µM (inactive)	12.2 µM (inactive)	51.4 µM (inactive)	17.5 µM (inactive)	> 100 µM (inactive)	22.8 µM (inactive)	20.3 µM (inactive)	70.1 µM (inactive)	> 100 µM (inactive)	25.8 µM (inactive)	17.5 µM (inactive)	> 100 µM (inactive)	31.4 µM (inactive)	68.4 µM (inactive)	69.2 µM (inactive)	15.2 µM (inactive)	26.4 µM (inactive)	36.2 µM (inactive)	> 100 µM (inactive)	7.94 µM (inactive)
Cc1cccc2c(N)c3cccc(C(=O)NCC[N+](C)(C)Cc4ccc([N+](=O)[O-])n4C)c3nc12	1.92 µM (inactive)	1.66 µM (inactive)	25.1 µM (inactive)	8.26 µM (inactive)	41.3 µM (inactive)	18.7 µM (inactive)	18 µM (inactive)	17.6 µM (inactive)	10.4 µM (inactive)	13.5 µM (inactive)	3.07 µM (inactive)	23.3 µM (inactive)	7.26 µM (inactive)	16.2 µM (inactive)	22.4 µM (inactive)	4.6 µM (inactive)	12.1 µM (inactive)	16.7 µM (inactive)	8.97 µM (inactive)	3.7 µM (inactive)
CC1N(C)C(=O)OC12CCN(CCCC(=O)c1ccc(F)cc1)CC2 (stereo not given)	> 100 µM (inactive)	> 100 µM (inactive)	> 100 µM (inactive)	> 100 µM (inactive)	> 100 µM (inactive)	> 100 µM (inactive)	> 100 µM (inactive)	> 100 µM (inactive)	> 100 µM (inactive)	> 100 µM (inactive)	> 100 µM (inactive)	> 100 µM (inactive)	> 100 µM (inactive)	> 100 µM (inactive)	> 100 µM (inactive)	> 100 µM (inactive)	> 100 µM (inactive)	> 100 µM (inactive)	> 100 µM (inactive)	> 100 µM (inactive)
